Read-outs that look alike come from different tables or passages of the source.
What was measured:
rats [1] = test: Loss of righting reflexes (LORR) assay in rats, ED50 by up and down method; format: in vivo, rat; details: tail vein; for ED50: Rattus norvegicus
Outline: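 Adult male Sprague-Dawley rats (250-300 g) dosed i.v. via tail vein at 0.1 mL/s. Anesthesia scored as loss of righting reflex lasting >30 s; ED50 derived by up-and-down method.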

rats [2] = test system: rats
Protocol: Adult male Sprague-Dawley rats (250-300 g) were selected for the experiment. […] The anesthesia effects of the compounds were assessed in rats using a LORR assay and a period >30 s was considered as an indicator of general anesthesia. Then the up and down method was used to determine 50% effective dose (ED50). The drugs were administered through the tail vein of rats in a volume of 0.6 mL and at a rate of 0.1 mL/s.

rats [3] = test: Pharmacological characteristics at equivalent doses (2×ED50) in rats; details: 2×ED50, tail vein; for Adverse reactions: Red urine (incidence): DMSO solution (DMSO alone 10/10); for Onset time: time of LORR
Outline: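 Adult male Sprague-Dawley rats (250-300 g, n=8) received each drug at twice its ED50 via tail vein (0.6 mL at 0.1 mL/s). Onset of anesthesia taken as time to LORR.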

[4] = test system: secretion of corticosterone, H295R cell line; test: cells; format: cell-based
Protocol: (§1) The Effects of the Compounds on Adrenocortical Function In Vitro Test
(§2) Then secretion of the cortisol and corticosterone in the supernatant, was measured using HPLC-MS/MS method to determine whether the compounds of the present invention had adrenotoxic potential.

[5] = test system: secretion of cortisol, H295R cell line; test: cells; format: cell-based
Protocol: as §1, §2

rats [6] = format: in vivo, rat; details: for recovery time of the test animals' righting reflex: rats of the MAP/HR figures, 2×ED50, tail vein, same value in min
Outline: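 Rats implanted with telemetry (left ventricular and abdominal aortic catheters, ECG leads) at least one week before recording; compounds given via lateral tail-vein catheter. MAP and HR sampled every 15 s for 30 min before and after dosing to judge hemodynamic stability.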

rats [7] = test system: rats; remark: listed apart in the source
Protocol: Pharmacological Effects of the Compounds on Continuous Infusion in Rats
Adult male Sprague-Dawley rats with body weight ranging from 250 to 300 gm were selected for continuous infusion test. […] Time to recovery of righting reflex from stopping infusion, and time to fully awake from stopping infusion were recorded.

rats [8] = format: in vivo, rat; details: rats of the MAP/HR figures, 2×ED50, tail vein
[9] = Homo sapiens, NCI-H295R, read-out: EC50 (Corticosterone)
[10] = Homo sapiens, NCI-H295R, read-out: EC50 (Cortisol)
[11] = continuous tail vein infusion at 2×MIR, LORR maintained 1 hour, Table C4
[12] = H295R cell line; 0.1-10000 nM; HPLC-MS/MS; Table E3
[13] = continuous tail vein infusion at 2×MIR, LORR maintained 1 hour, Table E4
[14] = H295R cell line; 0.1-10000 nM; HPLC-MS/MS; Table D3
[15] = continuous tail vein infusion at 2×MIR, LORR maintained 1 hour, Table D4
[16] = emulsion, continuous infusion at 2×MIR

SMILES | ED50 (rats [1]; class symbols) | Approximate therapeutic index (rats [2]) | Minimal lethal dose (rats [2]) | Righting reflex duration (rats [3]) | Adverse reactions: Red urine (incidence) (rats [3]) | Onset time (rats [3]) | EC50 [4, 9] | EC50 [5, 10] | recovery time of the test animals' righting reflex (rats [6]) | recovery time of the test animals' righting reflex (rats [8]) | Corticosterone as an indicator to determine the presence of inhibition [4, 14] | Cortisol as an indicator to determine the presence of inhibition [5, 14] | Onset time (rats [7]; [15]) | Recovery time after stopping infusion (rats [7]; [15]) | Corticosterone as an indicator to determine the presence of inhibition ([4]; H295R; Table A3) | Cortisol as an indicator to determine the presence of inhibition ([5]; H295R; Table A3) | Recovery time after stopping infusion (rats [7]; after 1 hour infusion at 2×MIR) | Adverse reactions: Tremor (incidence) (rats [7]; continuous infusion 2×MIR) | Onset time (rats [7]; [16]) | Corticosterone as an indicator to determine the presence of inhibition ([4]; H295R; Table B3) | further results
C[C@H](c1ccccc1)n1cncc1C(=O)OC(C)(C)C [Compound C18] | 0.1 to 0.5 mg/kg | >14 | >5 mg/kg | 1.96 ± 1.39 min | (8/8) | 0.25 ± 0.13 min | > 1000 nM | > 1000 nM | 1.92 min | 115 s | – | – | – | – | – | – | – | – | – | – | Adverse reactions: Tremor (incidence) (rats [3]; animals affected/animals): Tremor (5/8), Red urine; Corticosterone as an indicator to determine the presence of inhibition ([4]; H295R; Table C3): 0; Cortisol as an indicator to determine the presence of inhibition ([5]; H295R; Table C3): 0; Onset time (rats [7]; [11]): 3 to 4 min; Recovery time after stopping infusion (rats [7]; [11]): 10 to 14 min; Types and incidence of adverse reactions (rats [7]; [11]): Tremor (1/6)
C[C@H](c1ccccc1)n1cnc(F)c1C(=O)OCC1CC1 [Compound E8] | – | >22 | >4 mg/kg | 1.90 ± 0.82 min | (8/8) | 0.38 ± 0.06 min | – | – | 2.00 min | 120 s | – | – | – | – | – | – | – | – | – | – | ED50 (mg/kg) (rats [1]; class symbols): B (B means that the measured ED50 is in the range of 0.10-0.50 mg/kg (excluding 0.10 mg/kg, including 0.50 mg/kg).); Sedation duration (mg/kg) (rats [3]): 7.12 ± 0.81; Corticosterone as an indicator to determine the presence of inhibition [4, 12]: 0; EC50 ([4]; H295R cell line; 0.1-10000 nM; HPLC-MS/MS; Table E3; read-out: EC50 (Corticosterone)): > 100 nM; Cortisol as an indicator to determine the presence of inhibition [5, 12]: 0; EC50 ([5]; H295R cell line; 0.1-10000 nM; HPLC-MS/MS; Table E3; read-out: EC50 (Cortisol)): > 100 nM; Onset time (rats [7]; [13]): 3 to 4 min; Recovery time after stopping infusion (rats [7]; [13]): 12 to 14 min; Types and incidence of adverse reactions (rats [7]; [13]): Tremor (1/6), Tongue stretching (4/6)
C=C=CC1(OC(=O)c2cncn2[C@H](C)c2ccccc2)CCCCC1 [Compound D43] | 0.01 to 0.1 mg/kg | >13 | >1 mg/kg | 1.45 ± 0.78 min | Red urine (8/8) | 0.22 ± 0.07 min | > 10000 nM | > 10000 nM | 1.95 min | 117 s | 0 | 0 | 2 to 3 min | 11 to 14 min | – | – | – | – | – | – | Adverse reactions: Hindlimb rigidity (incidence) (rats [3]): Hindlimb rigidity (2/8),; Types and incidence of adverse reactions (rats [7]; [15]): Tremor (4/6)
C[C@H](c1ccccc1)n1cncc1C(=O)OC1CCC1 [Compound A17] | 0.5 to 1 mg/kg | >11 | >6 mg/kg | 5.78 ± 2.28 min | Red urine (8/8) | 0.13 ± 0.03 min | > 10000 nM | > 10000 nM | 5.45 min | 327 s | – | – | – | – | 0 | 0 | 19 to 25 min | Tremor (2/6) | 2 to 3 min | – | Adverse reactions: Tongue stretching (incidence) (rats [3]): Tongue stretching (2/8),
CC#CC1(OC(=O)c2cncn2[C@H](C)c2ccccc2)CCCCC1 [Compound D40] | 0.1 to 0.5 mg/kg | >16 | >4 mg/kg | 1.78 ± 1.94 min | Red urine (8/8) | 0.73 ± 0.43 min | > 1000 nM | > 1000 nM | 7.35 min | 441 s | 0 | 0 | 2 to 3 min | 10 to 15 min | – | – | – | – | – | – | Adverse reactions: Hindlimb rigidity (incidence) (rats [3]): Hindlimb rigidity (1/8),; Types and incidence of adverse reactions (rats [7]; [15]): Tremor (5/6)
C[C@H](c1ccccc1)n1cncc1C(=O)OCC1CCC1 [Compound A8] | 0.1 to 0.5 mg/kg | >10 | >2 mg/kg | 2.25 ± 2.64 min | Red urine (8/8) | 0.34 ± 0.21 min | > 1000 nM | > 1000 nM | 2.15 min | 129 s | – | – | – | – | 0 | 0 | 9 to 14 min | Tremor (1/6) | 3 to 4 min | – | –
C[C@H](c1ccccc1)n1cncc1C(=O)OCC1(C)COC1 [Compound B5] | 0.1 to 0.5 mg/kg | >11 | >10 mg/kg | 3.98 ± 1.34 min | Red urine (8/8) | 0.11 ± 0.02 min | > 10000 nM | > 1000 nM | 4.25 min | 255 s | – | – | – | – | – | – | 12 to 14 min | Tremor (2/6) | 3 to 4 min | 0 | Cortisol as an indicator to determine the presence of inhibition ([5]; H295R; Table B3): 0
CCOC(=O)c1cncn1[C@H](C)c1ccccc1 [Etomidate, ethyl R-(+)-1-(1-phenylethyl)-1H-imidazol-5-carboxylate, reference compound] | – | – | 12.75 mg/kg | – | – | – | > 10 nM | > 1 nM | 7.33 min | 440 s | 2 | 2 | 4 to 5 min | 25 to 30 min | 2 | 2 | 25 to 30 min | 6/6 | 4 to 5 min | 2 | ED50 (rats [1]; brackets = 95% confidence limit): 0.75 mg/kg; Corticosterone as an indicator to determine the presence of inhibition [4, 12]: 2; Corticosterone as an indicator to determine the presence of inhibition ([4]; H295R; Table C3): 2; EC50 ([4]; read-out: EC50 (Corticosterone); H295R cell line; 0.1-10000 nM; HPLC-MS/MS; Table D3): > 10 nM; EC50 ([4]; read-out: EC50 (Corticosterone); H295R cell line; 0.1-10000 nM; HPLC-MS/MS; Table E3): > 10 nM; Cortisol as an indicator to determine the presence of inhibition [5, 12]: 2; Cortisol as an indicator to determine the presence of inhibition ([5]; H295R; Table B3): 2; Cortisol as an indicator to determine the presence of inhibition ([5]; H295R; Table C3): 2; EC50 ([5]; read-out: EC50 (Cortisol); H295R cell line; 0.1-10000 nM; HPLC-MS/MS; Table D3): > 1 nM; EC50 ([5]; read-out: EC50 (Cortisol); H295R cell line; 0.1-10000 nM; HPLC-MS/MS; Table E3): > 1 nM; effect on the circulatory function (MAP, HR) (rats [6]; rats, 2×ED50, 30 min after administration): almost no inhibitory effect on the circulatory function; Adverse reactions: Facial muscle twitching (incidence) (rats [7]; continuous infusion 2×MIR): twitching (4/6), Tongue stretching; Adverse reactions: Tongue stretching (incidence) (rats [7]; continuous infusion 2×MIR): (5/6); Onset time (rats [7]; [11]): 4 to 5 min; Recovery time after stopping infusion (rats [7]; [11]): 25 to 30 min; Onset time (rats [7]; [13]): 4 to 5 min; Recovery time after stopping infusion (rats [7]; [13]): 25 to 30 min
CC(OC(=O)c1cncn1[C@H](C)c1ccccc1)C1CO1 (stereo partly shown) [Compound B20] | 0.5 to 1 mg/kg | >10 | >17 mg/kg | 2.59 ± 0.99 min | Red urine (8/8) | 0.28 ± 0.14 min | > 1000 nM | > 1000 nM | 2.68 min | 161 s | – | – | – | – | – | – | – | – | – | 0 | Cortisol as an indicator to determine the presence of inhibition ([5]; H295R; Table B3): 0

Reference: patent publication US11434205B2, “Substituted imidazole carboxylate derivatives and the use thereof” (priority 2018, dated 2022)
